Measured values published in patent US20260273047A1, “COMPOSITIONS AND METHODS FOR AMELIORATING ADVERSE EFFECTS OF THERAPIES” (MDX Management LLC, priority 2023, published 2026).
“Also recorded” adds a separate entry of the source.

Tests used:
MC38 = MC38 tumors treated intratumorally with TPI-1 and T cell activating agents; assay type: in vivo, C57Bl/6 mice
Method: Inhibition of SHP-1 was tested in vivo for tumor therapies. […] Tumor growth was measured over time until the tumors reached 2.0 cm in diameters. […] Anti-PD-1 antibody was 205[…] 50 μg by intratumoral injection every 3 days. Anti-CD3 antibody and anti-CD28 antibody were each 205[…] 50 μg by intratumoral injection in a single dose.

4T1 breast cancer = assay type: in vivo; conditions: lotion twice a day; anti-PD-1 100 μg i.p. every three days; all groups prophylactic anti-TNFα mAb
Method: Efficacy of topical treatments against tumor growth and/or progression was tested using murine models of cutaneous/subcutaneous breast cancer. […] Palpable tumors were formed in 10-15 days and were traced by bioluminescence imaging. Tumor sizes were measured manually, and the volume was calculated by the equation=[length (mm)×width (mm)×width (mm)]/2. Once the total tumor volume reached ≥200 mm^3, treatments were started.
Treatment groups included: (i) Control treatment (ctl.), wherein mice received topical non-drug lotion (vehicle) only; (ii) αPD-1 treatment, wherein mice received topical non-drug lotion (vehicle) treatment along with 100 μg of anti-PD-1 monoclonal antibody once every three days through intraperitoneal injection; (iii) Topical treatment with TLR agonists only (i.e. Condition A), wherein mice received aTLR (Resiquimod (R848) and polyI:C) prepared in Johnson's lotion, each at 100 μg/ml in a final volume of 100-200 μL lotion: (iv) Topical treatment with SHP-1 inhibitors only (i.e. Condition B), wherein mice received deuterated TPI-1 (dTPI-1) at 100 μg/ml in a final volume of 100-200 μL lotion; (v) Topical treatment with Conditions A+B only in a final volume of 100-200 μL lotion; and (vi) Topical treatment with Conditions A+B in a final volume of 100-200 μL lotion and systemic αPD-1 treatment. […]

[1] = tested on: malignant melanoma and advanced malignancies; conditions: cited from earlier work

SMILES: O=C1C=CC(=O)C(c2cc(Cl)ccc2Cl)=C1 [TPI-1, 2-(2,5-dichlorophenyl)benzoquinone]
- effect of adding TPI-1 to αPD-1, IL-2, anti-CD3/CD28 or αPD-1+IL-2 (MC38; TPI-1 1 mg/kg every 2 days, 1 mg/kg): enabled the intratumoral injection of αPD-1, IL-2, or anti-CD3/CD28 to achieve strong anti-tumor effects; also recorded: instantly overcame treatment resistance
- effect on established tumors, such as MC38, KPC, or LLC (MC38; agent alone): only minor effects
- MC38 tumor growth / resistance (MC38; intratumoral, agent without SHP-1 inhibitor, or TPI-1 alone (1 mg/kg every 2 days)): did not attenuate tumor growth; also recorded: did not stop tumor progression

SMILES: [2H]C1=C([2H])C(=O)C(c2c([2H])c(Cl)c([2H])c([2H])c2Cl)=C([2H])C1=O [dTPI-1]
- 4T1 tumor growth / progression (4T1 breast cancer): only slightly delayed tumor progression

SMILES: O.O.O.O.O.O.O.O.O.O=C([O-])[C@@H]1[O][Sb]2([O-])([O][Sb]34([OH])[O][C@H]([C@H](O)CO)[C@H]([O]3)[C@H](C(=O)[O-])[O]4)[O][C@H]([C@H](O)CO)[C@@H]1[O]2.[Na+].[Na+].[Na+] [SSG, sodium stibogluconate]
- most common toxic side-effects, frequency ([1]; thrombocytopenia, elevated serum lipase, fatigue, fever, chills, anemia, hypokalemia, pancreatitis, skin rash): up to 68 % of patients
- effect against tumor development ([1]; with interferons, followed or not by chemotherapy): no effect was seen against tumor development
